Assay results reported in publication PMC6511943, “Structure-Guided Drug Design of 6-Substituted Adenosine Analogues as Potent Inhibitors of Mycobacterium tuberculosis Adenosine Kinase” (Journal of Medicinal Chemistry, 2019).

Tested on: Mtb H37Rv-resistant mutants (adoK D251N, Q172P, G262S)
Assay type: cell-based, Mycobacterium tuberculosis

With `Nc1ncnc2c1c(I)cn2[C@@H]1O[C@H](CO)[C@@H](O)[C@H]1O` [Compound 2, Iodotubercidin] the MIC was > 100 µM.
